# According to patent publication US8952024B2, “Herbicidal pyrimidone derivatives” (E I du Pont de Nemours and Company, priority 2009, dated 2015):
# Columns and labels:
# Assay in all cases: Test B pre-/postemergence plant response
# Format in all cases: in vivo
# [1] = system: Italian ryegrass (Lolium multiflorum); conditions: Postemergence
# Procedure, shortened: (§1)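 Compound in solvent + surfactant applied pre-em (loam/sand) or post-em (plants 2–18 cm, peat medium); greenhouse hold 13–15 days; visual 0–100 control score.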
# [2] = system: blackgrass (Alopecurus myosuroides); conditions: for Plant response rating, Blackgrass: Postemergence; for Blackgrass plant response rating (0 to 100 scale): 62 g ai/ha, postemergence, 0 is no effect, 100 is complete control
# Procedure, shortened: as §1
# [3] = system: cocklebur (Xanthium strumarium); conditions: Postemergence
# Procedure, shortened: as §1
# [4] = system: corn (Zea mays); conditions: Postemergence
# Procedure, shortened: as §1
# [5] = system: giant foxtail (Setaria faberii); conditions: Postemergence
# Procedure, shortened: as §1
# [6] = system: goosegrass (Eleusine indica); conditions: Postemergence
# Procedure, shortened: as §1
# [7] = system: green foxtail (Setaria viridis); conditions: Postemergence
# Procedure, shortened: as §1
# [8] = system: johnsongrass (Sorghum halepense); conditions: Postemergence
# Procedure, shortened: as §1
# [9] = system: kochia (Kochia scoparia); conditions: Postemergence
# Procedure, shortened: as §1
# [10] = system: large crabgrass (Digitaria sanguinalis); conditions: Postemergence
# Procedure, shortened: as §1
# [11] = system: morningglory (Ipomoea coccinea); conditions: Postemergence
# Procedure, shortened: as §1
# [12] = system: ragweed (common ragweed, Ambrosia elatior); conditions: Postemergence
# Procedure, shortened: as §1
# [13] = system: soybean (Glycine max); conditions: Postemergence
# Procedure, shortened: as §1
# [14] = system: velvetleaf (Abutilon theophrasti); conditions: Postemergence
# Procedure, shortened: as §1
# [15] = 31 g ai/ha, 0 to 100 scale (0 no effect, 100 complete control)
# [16] = 125 g ai/ha, scale 0 to 100 (0 no effect, 100 complete control)
# [17] = 250 g ai/ha, scale 0 to 100 (0 no effect, 100 complete control), 13 to 15 days
compound,measurement,setting,value
Cc1ccccc1-n1c(-c2cc(F)cc(F)c2)ncc(C(=O)C2=C(O)CCCC2=O)c1=O [Compound 159],"Plant response rating, Ryegrass, Italian","[1]; 8 g ai/ha, 0 to 100 scale",0
same,"Plant response rating, Ryegrass, Italian","[1]; 16 g ai/ha, 0 to 100 scale",0
same,"Plant response rating, Ryegrass, Italian",[1]; [15],30
same,"Plant response rating, Blackgrass","[2]; 8 g ai/ha, 0 to 100 scale",0
same,"Plant response rating, Blackgrass","[2]; 16 g ai/ha, 0 to 100 scale",5
same,Blackgrass plant response rating (0 to 100 scale),[2]; 13 to 15 days,25
same,"Plant response rating, Blackgrass",[2]; [15],20
same,"Plant response rating, Cocklebur","[3]; 8 g ai/ha, 0 to 100 scale",75
same,"Plant response rating, Cocklebur","[3]; 16 g ai/ha, 0 to 100 scale",80
same,"Plant response rating, Cocklebur",[3]; [15],95
same,"Plant response rating, Corn","[4]; 8 g ai/ha, 0 to 100 scale",15
same,"Plant response rating, Corn","[4]; 16 g ai/ha, 0 to 100 scale",25
same,"Plant response rating, Corn",[4]; [15],60
same,"Plant response rating, Foxtail, Giant","[5]; 8 g ai/ha, 0 to 100 scale",75
same,"Plant response rating, Foxtail, Giant","[5]; 16 g ai/ha, 0 to 100 scale",80
same,"Plant response rating, Foxtail, Giant",[5]; [15],85
same,"Plant response rating, Goosegrass","[6]; 8 g ai/ha, 0 to 100 scale",70
same,"Plant response rating, Goosegrass","[6]; 16 g ai/ha, 0 to 100 scale",80
same,"Plant response rating, Goosegrass",[6]; [15],85
same,"Plant response rating, Foxtail, Green","[7]; 8 g ai/ha, 0 to 100 scale",50
same,"Plant response rating, Foxtail, Green","[7]; 16 g ai/ha, 0 to 100 scale",80
same,"Plant response rating, Foxtail, Green",[7]; [15],85
same,"Plant response rating, Johnsongrass","[8]; 8 g ai/ha, 0 to 100 scale",10
same,"Plant response rating, Johnsongrass","[8]; 16 g ai/ha, 0 to 100 scale",45
same,"Plant response rating, Johnsongrass",[8]; [15],45
same,"Plant response rating, Kochia","[9]; 8 g ai/ha, 0 to 100 scale",20
same,"Plant response rating, Kochia","[9]; 16 g ai/ha, 0 to 100 scale",20
same,"Plant response rating, Kochia",[9]; [15],40
same,"Plant response rating, Crabgrass, Large","[10]; 8 g ai/ha, 0 to 100 scale",65
same,"Plant response rating, Crabgrass, Large","[10]; 16 g ai/ha, 0 to 100 scale",75
same,"Plant response rating, Crabgrass, Large",[10]; [15],80
same,"Plant response rating, Morningglory","[11]; 8 g ai/ha, 0 to 100 scale",0
same,"Plant response rating, Morningglory","[11]; 16 g ai/ha, 0 to 100 scale",10
same,"Plant response rating, Morningglory",[11]; [15],60
same,"Plant response rating, Ragweed","[12]; 8 g ai/ha, 0 to 100 scale",65
same,"Plant response rating, Ragweed","[12]; 16 g ai/ha, 0 to 100 scale",80
same,"Plant response rating, Ragweed",[12]; [15],90
same,"Plant response rating, Soybean","[13]; 8 g ai/ha, 0 to 100 scale",80
same,"Plant response rating, Soybean","[13]; 16 g ai/ha, 0 to 100 scale",85
same,"Plant response rating, Soybean",[13]; [15],95
same,"Plant response rating, Velvetleaf","[14]; 8 g ai/ha, 0 to 100 scale",98
same,"Plant response rating, Velvetleaf","[14]; 16 g ai/ha, 0 to 100 scale",100
same,"Plant response rating, Velvetleaf",[14]; [15],100
O=C1CCCC(O)=C1C(=O)c1cnc(-c2ccccc2)n(C2CCSCC2)c1=O [Compound 164],"Plant response rating, Ryegrass, Italian",[1]; [15],5
same,"Plant response rating, Ryegrass, Italian",[1]; [16],20
same,"Plant response rating, Ryegrass, Italian",[1]; [17],40
same,Blackgrass plant response rating (0 to 100 scale),[2]; 13 to 15 days,5
same,"Plant response rating, Blackgrass",[2]; [15],5
same,"Plant response rating, Blackgrass",[2]; [16],10
same,"Plant response rating, Blackgrass",[2]; [17],35
same,"Plant response rating, Cocklebur",[3]; [15],98
same,"Plant response rating, Cocklebur",[3]; [16],100
same,"Plant response rating, Cocklebur",[3]; [17],100
same,"Plant response rating, Corn",[4]; [15],15
same,"Plant response rating, Corn",[4]; [16],45
same,"Plant response rating, Corn",[4]; [17],70
same,"Plant response rating, Foxtail, Giant",[5]; [15],90
same,"Plant response rating, Foxtail, Giant",[5]; [16],98
same,"Plant response rating, Foxtail, Giant",[5]; [17],100
same,"Plant response rating, Goosegrass",[6]; [15],85
same,"Plant response rating, Goosegrass",[6]; [16],98
same,"Plant response rating, Goosegrass",[6]; [17],98
same,"Plant response rating, Foxtail, Green",[7]; [15],70
same,"Plant response rating, Foxtail, Green",[7]; [16],98
same,"Plant response rating, Foxtail, Green",[7]; [17],100
same,"Plant response rating, Johnsongrass",[8]; [15],45
same,"Plant response rating, Johnsongrass",[8]; [16],95
same,"Plant response rating, Johnsongrass",[8]; [17],98
same,"Plant response rating, Kochia",[9]; [15],98
same,"Plant response rating, Kochia",[9]; [16],100
same,"Plant response rating, Kochia",[9]; [17],100
same,"Plant response rating, Crabgrass, Large",[10]; [15],95
same,"Plant response rating, Crabgrass, Large",[10]; [16],98
same,"Plant response rating, Crabgrass, Large",[10]; [17],100
same,"Plant response rating, Morningglory",[11]; [15],90
same,"Plant response rating, Morningglory",[11]; [16],98
same,"Plant response rating, Morningglory",[11]; [17],100
same,"Plant response rating, Ragweed",[12]; [15],85
same,"Plant response rating, Ragweed",[12]; [16],98
same,"Plant response rating, Ragweed",[12]; [17],100
same,"Plant response rating, Soybean",[13]; [15],80
same,"Plant response rating, Soybean",[13]; [16],100
same,"Plant response rating, Soybean",[13]; [17],100
same,"Plant response rating, Velvetleaf",[14]; [15],70
same,"Plant response rating, Velvetleaf",[14]; [16],80
same,"Plant response rating, Velvetleaf",[14]; [17],95
